Measurements as given in PMC3950950, “Fluorescent sensors for activity and regulation of the nitrate transceptor CHL1/NRT1.1 and oligopeptide transporters” (eLife, 2014).
Residues, ends and D or L forms follow the SMILES beside them.

What was measured:
Type in all cases: cell-based
[1] = biological target: T1, NiTrac1 (CHL1/NRT1.1/NPF6.3 fusion) (Arabidopsis thaliana, UniProt Q05085); assay: fluorescence response (donor quenching) of sensor in yeast, plate reader; details: 50 mM MES pH 5.5; high-affinity phase of biphasic response (low-affinity phase is a second site); excitation 428 nm
T1 construct: full-length ORF between N-terminal Aphrodite t9 (yellow FP) and C-terminal mCerulean (pDRFlip30); expressed in yeast BJ5465; intact cells
T1 sequence (Q05085 1-590): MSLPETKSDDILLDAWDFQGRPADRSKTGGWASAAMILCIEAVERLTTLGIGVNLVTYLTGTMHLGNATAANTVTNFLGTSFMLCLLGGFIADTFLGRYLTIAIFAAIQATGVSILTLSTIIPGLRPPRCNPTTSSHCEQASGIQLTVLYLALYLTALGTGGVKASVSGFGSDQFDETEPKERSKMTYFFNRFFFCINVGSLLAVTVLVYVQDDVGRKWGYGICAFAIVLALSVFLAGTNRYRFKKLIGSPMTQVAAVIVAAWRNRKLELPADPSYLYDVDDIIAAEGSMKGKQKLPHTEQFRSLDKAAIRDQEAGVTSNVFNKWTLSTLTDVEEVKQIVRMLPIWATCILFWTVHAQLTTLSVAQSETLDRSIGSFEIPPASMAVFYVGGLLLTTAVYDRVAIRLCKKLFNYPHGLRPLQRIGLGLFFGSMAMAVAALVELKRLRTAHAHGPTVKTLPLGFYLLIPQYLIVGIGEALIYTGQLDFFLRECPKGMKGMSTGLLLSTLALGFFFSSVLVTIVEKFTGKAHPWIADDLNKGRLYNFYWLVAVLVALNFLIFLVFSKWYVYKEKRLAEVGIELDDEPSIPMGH

CHL1/NRT1.1/NPF6.3 = biological target: T2, CHL1/NRT1.1/NPF6.3 (Arabidopsis thaliana, UniProt Q05085); assay: […]-nitrate uptake and TEVC currents in Xenopus oocytes; details: 0.25 and 10 mM K15NO3, pH 5.5 (uptake); 0.5 and 10 mM CsNO3 (TEVC)
T2 construct: CHL1 cDNA without fluorescent proteins in pOO2-GW; cRNA-injected Xenopus laevis oocytes
T2 sequence (Q05085 1-590): T1 sequence (Q05085 1-590)

PepTrac5 (PTR5 fusion) = biological target: T3, PepTrac5 (PTR5 fusion) (Arabidopsis thaliana, UniProt Q9LFB8); assay: fluorescence response (donor quenching) of sensor in yeast; details: 0.5 mM diglycine; 50 mM MES pH 5.5; excitation 428 nm
T3 construct: gene NPF8.2; full-length ORF between N-terminal Aphrodite and C-terminal mCerulean; expressed in yeast; intact cells
T3 sequence (Q9LFB8 1-570): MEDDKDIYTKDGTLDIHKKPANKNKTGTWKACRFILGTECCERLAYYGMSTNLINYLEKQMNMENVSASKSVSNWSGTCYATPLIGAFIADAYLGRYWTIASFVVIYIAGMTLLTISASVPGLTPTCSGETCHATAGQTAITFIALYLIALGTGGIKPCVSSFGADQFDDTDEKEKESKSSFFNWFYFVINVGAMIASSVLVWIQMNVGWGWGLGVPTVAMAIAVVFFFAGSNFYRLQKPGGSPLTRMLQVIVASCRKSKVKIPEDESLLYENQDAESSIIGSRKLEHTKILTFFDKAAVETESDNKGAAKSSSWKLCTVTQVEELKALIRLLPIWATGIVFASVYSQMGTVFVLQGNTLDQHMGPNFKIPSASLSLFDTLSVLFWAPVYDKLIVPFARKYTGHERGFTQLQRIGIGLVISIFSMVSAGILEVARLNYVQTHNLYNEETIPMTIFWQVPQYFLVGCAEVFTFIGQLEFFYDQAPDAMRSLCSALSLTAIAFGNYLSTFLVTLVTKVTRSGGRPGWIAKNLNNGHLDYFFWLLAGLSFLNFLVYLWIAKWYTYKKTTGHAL

PepTrac4 (PTR4 fusion) = biological target: T4, PepTrac4 (PTR4 fusion) (Arabidopsis thaliana, UniProt Q84WG0); assay: FRET ratio change of sensor in yeast; details: 0.5 mM diglycine; 50 mM MES pH 5.5; excitation 428 nm
T4 construct: gene NPF8.4; full-length ORF between N-terminal Aphrodite and C-terminal mCerulean; expressed in yeast; intact cells
T4 sequence (Q84WG0 1-545): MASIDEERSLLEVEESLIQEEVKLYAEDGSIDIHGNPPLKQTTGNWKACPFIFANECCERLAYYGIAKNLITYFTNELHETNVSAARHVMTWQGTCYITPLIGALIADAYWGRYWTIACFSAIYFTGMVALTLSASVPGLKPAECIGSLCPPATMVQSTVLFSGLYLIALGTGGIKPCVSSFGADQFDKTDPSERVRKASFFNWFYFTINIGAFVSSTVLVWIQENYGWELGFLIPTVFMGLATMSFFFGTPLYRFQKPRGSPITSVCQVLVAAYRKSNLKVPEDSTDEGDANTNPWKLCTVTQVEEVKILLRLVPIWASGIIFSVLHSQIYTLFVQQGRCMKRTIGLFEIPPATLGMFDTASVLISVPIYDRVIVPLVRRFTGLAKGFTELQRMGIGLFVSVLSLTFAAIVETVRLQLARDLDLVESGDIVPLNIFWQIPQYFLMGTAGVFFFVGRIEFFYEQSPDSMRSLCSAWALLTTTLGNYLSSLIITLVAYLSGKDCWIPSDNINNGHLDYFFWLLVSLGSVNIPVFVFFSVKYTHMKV

PepTrac1 (PTR1 fusion) = biological target: T5, PepTrac1 (PTR1 fusion) (Arabidopsis thaliana, UniProt Q9M390); assay: fluorescence response (donor quenching) of sensor in yeast; details: 0.5 mM diglycine; 50 mM MES pH 5.5; excitation 428 nm
T5 construct: gene NPF8.1; full-length ORF between N-terminal Aphrodite and C-terminal mCerulean; expressed in yeast; intact cells
T5 sequence (Q9M390 1-570): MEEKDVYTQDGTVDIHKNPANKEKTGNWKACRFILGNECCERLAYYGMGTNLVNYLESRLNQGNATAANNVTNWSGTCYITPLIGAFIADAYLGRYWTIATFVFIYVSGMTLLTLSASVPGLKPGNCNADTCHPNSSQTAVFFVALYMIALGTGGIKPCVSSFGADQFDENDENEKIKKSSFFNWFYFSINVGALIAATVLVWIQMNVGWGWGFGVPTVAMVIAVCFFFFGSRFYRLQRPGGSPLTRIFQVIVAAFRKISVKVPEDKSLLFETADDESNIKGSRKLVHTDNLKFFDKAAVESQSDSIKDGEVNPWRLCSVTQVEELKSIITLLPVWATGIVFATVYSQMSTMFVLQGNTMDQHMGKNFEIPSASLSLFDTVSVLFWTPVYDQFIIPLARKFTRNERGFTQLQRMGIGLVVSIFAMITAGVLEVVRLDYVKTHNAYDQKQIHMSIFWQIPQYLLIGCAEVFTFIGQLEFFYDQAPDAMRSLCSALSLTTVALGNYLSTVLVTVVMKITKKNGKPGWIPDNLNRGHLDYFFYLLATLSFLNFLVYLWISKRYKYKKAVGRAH

PepTrac2 (PTR2 fusion) = biological target: T6, PepTrac2 (PTR2 fusion) (Arabidopsis thaliana, UniProt P46032); assay: as above; details: 0.5 mM diglycine; 50 mM MES pH 5.5; excitation 428 nm
T6 construct: gene NPF8.3; full-length ORF between N-terminal Aphrodite and C-terminal mCerulean; expressed in yeast; intact cells
T6 sequence (P46032 1-585): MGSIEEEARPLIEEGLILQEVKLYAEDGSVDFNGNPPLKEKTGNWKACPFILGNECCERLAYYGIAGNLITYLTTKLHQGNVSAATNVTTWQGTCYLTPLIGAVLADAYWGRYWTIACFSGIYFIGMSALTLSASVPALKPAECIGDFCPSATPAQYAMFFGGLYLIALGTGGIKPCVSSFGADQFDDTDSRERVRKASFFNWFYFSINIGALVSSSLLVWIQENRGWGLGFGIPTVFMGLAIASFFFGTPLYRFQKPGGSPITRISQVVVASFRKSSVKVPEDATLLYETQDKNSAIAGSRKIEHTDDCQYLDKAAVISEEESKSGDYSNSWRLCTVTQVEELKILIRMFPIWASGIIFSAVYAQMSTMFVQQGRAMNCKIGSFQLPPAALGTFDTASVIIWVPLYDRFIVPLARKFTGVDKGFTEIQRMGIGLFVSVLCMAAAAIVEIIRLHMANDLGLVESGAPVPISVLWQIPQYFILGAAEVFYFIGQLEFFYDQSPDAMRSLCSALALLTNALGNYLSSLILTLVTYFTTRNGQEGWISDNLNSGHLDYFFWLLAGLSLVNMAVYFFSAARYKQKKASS

Km [1]	SMILES	15N-nitrate uptake and TEVC currents in Xenopus oocytes (CHL1/NRT1.1/NPF6.3)	fluorescence response (donor quenching) of sensor in yeast (PepTrac5 (PTR5 fusion))	FRET ratio change of sensor in yeast (PepTrac4 (PTR4 fusion))	fluorescence response (donor quenching) of sensor in yeast (PepTrac1 (PTR1 fusion))	fluorescence response (donor quenching) of sensor in yeast (PepTrac2 (PTR2 fusion))
~ 75.1 ± 21 μM	O=[N+]([O-])O [nitrate]	In response to nitrate addition, CHL1 expressing oocytes showed an inward current				
	NCC(=O)NCC(=O)O [diglycine] (H-Gly-Gly-OH)		PepTrac1, PepTrac2, and PepTrac5 sensors all responded with donor quenching	PepTrac4 responded to substrate addition with a ratio change	PepTrac1, PepTrac2, and PepTrac5 sensors all responded with donor quenching	PepTrac1, PepTrac2, and PepTrac5 sensors all responded with donor quenching
